Results as given in patent publication US20240091162A1, “COMPOSITIONS AND METHODS FOR TREATING DEPRESSION AND ANXIETY” (THE TRUSTEES OF COLUMBIA UNIVERSITY IN THE CITY OF NEW YORK, priority 2021, published 2024).

Assays:
[1] = in vivo FLX pharmacokinetic study and in vivo imaging of model drug distribution after delivery by microburs; conditions: after delivery by MBs
[2] = in vivo
[3] = release of nanoparticles / SSRI from microbur and mesoporous silica nanoparticles; type: physicochemical

Row | model drug distribution (in vivo imaging system) [1] | FLX release profile from MB ([3]; MB with different structures) | release of SSRI from MSN ([3]; from a 42 nm-sized MSN) | SMILES | dispersion of FLX in the intestine [2]
1 | selective dispersion of drug in the gut | – | – | O=C1OC2(c3ccc(O)cc3Oc3cc(O)ccc32)c2ccccc21 [Fluorescein] | –
2 | – | sustainable FLX release profile | controlled release | CNCCC(Oc1ccc(C(F)(F)F)cc1)c1ccccc1 (stereo not shown) [Fluoxetine, fluoxetine] | local dispersion of FLX on small intestine epithelium
